System: PBMCs infected with VSV-G pseudotyped HIV virus (VSV-G/pNLGI-P2A-ΔEnv)
Assay: cells
Format: cell-based
Details: Homo sapiens, PBMC, read-out: TACK EC50 (nM)

Compound: O=C1Nc2cc(Cn3cnccc3=O)c(Cl)cc2[C@@](C#CC2CC2)(C(F)(F)F)O1 [Example 15, (S)-6-chloro-4-(cyclopropylethynyl)-7-((6-oxopyrimidin-1(6H)-yl)methyl)-4-(trifluoromethyl)-1,4-dihydro-2H-benzo[d][1,3]oxazin-2-one]
- EC50: 63 nM

Compound: CC(F)(F)[C@@]1(C#CC2CC2)OC(=O)Nc2cc(Cn3cnccc3=O)c(Cl)cc21 [Example 26, (S)-6-chloro-4-(cyclopropylethynyl)-4-(1,1-difluoroethyl)-7-((6-oxopyrimidin-1(6H)-yl)methyl)-1,4-dihydro-2H-benzo[d][1,3]oxazin-2-one]
- EC50: 16 nM

Compound: CC(F)(F)[C@@]1(C#CC2CC2)OC(=O)Nc2cc(Cn3cnccc3=O)ccc21 [Example 9, (S)-4-(cyclopropylethynyl)-4-(1,1-difluoroethyl)-7-((6-oxopyrimidin-1(6H)-yl)methyl)-1,4-dihydro-2H-benzo[d][1,3]oxazin-2-one]
- EC50: 90 nM

Compound: CC(F)(F)[C@@]1(C#CC2CC2)OC(=O)Nc2cc(Cc3ccnc(N)n3)c(Cl)cc21 [Example 40, (S)-7-((2-aminopyrimidin-4-yl)methyl)-6-chloro-4-(cyclopropylethynyl)-4-(1,1-difluoroethyl)-1,4-dihydro-2H-benzo[d][1,3]oxazin-2-one]
- EC50: 65 nM

Compound: COCc1cc(=O)n(Cc2cc3c(cc2F)[C@@](C#CC2CC2)(C(C)(F)F)OC(=O)N3)cn1 [Example 23, (S)-4-(cyclopropylethynyl)-4-(1,1-difluoroethyl)-6-fluoro-7-((4-(methoxymethyl)-6-oxopyrimidin-1(6H)-yl)methyl)-1,4-dihydro-2H-benzo[d][1,3]oxazin-2-one]
- EC50: 16 nM

Source: patent US20240409531A1, “BENZOXAZINONE DERIVATIVES AS SELECTIVE CYTOTOXIC AGENTS” (Merck Sharp & Dohme LLC, priority 2021, published 2024)
